Experimental data: patent US20230263822A1, “MODULATION OF FACTOR 11 EXPRESSION” (Ionis Pharmaceuticals, Inc., priority 2008, published 2023)
Strand notation (5' to 3'): a small letter for the sugar, then the base; units joined by * are phosphorothioate-linked, units joined directly phosphodiester-linked; [ ] holds rarer units or linkages, { } end groups; capitals alone tell only the bases. e = 2'-O-(2-methoxyethyl) (MOE); [5mC] = 5-methylcytosine; d = 2'-deoxy (DNA)

Assays:
Format in all cases: cell-based
[1] = system: human Factor 11 mRNA; experiment: Antisense inhibition of human Factor 11 in HepG2 cells, lipofectin, 75 nM (Example 1); details: 75 nM antisense oligonucleotide, ~24 h, relative to untreated control cells
Outline: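 HepG2 cells transfected via lipofectin with 75 nM antisense oligonucleotide (5-10-5 MOE gapmers, 20-mers, phosphorothioate, 5-methylcytidines), treated ~24 h. Factor 11 mRNA quantified by real-time PCR, normalised to RIBOGREEN total RNA; percent inhibition versus untreated cells.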

[2] = system: human Factor 11 mRNA; experiment: Antisense inhibition of human Factor 11 in HepG2 cells by microwalk gapmers, lipofectin, 75 nM (Example 3)
Outline: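 HepG2 cells (10,000/well) were transfected via lipofectin with 75 nM 20-mer MOE gapmers (phosphorothioate, 5-methyl-C) for about 24 h. Factor 11 mRNA was measured by qRT-PCR, normalized to RIBOGREEN total RNA, and given as percent inhibition versus untreated cells.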

[3] = system: human Factor 11 mRNA; experiment: Dose-dependent inhibition of human Factor 11 in HepG2 cells, lipofectin 9.375-75 nM (Example 4)
Outline: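 HepG2 cells transfected via lipofectin with antisense oligonucleotide at 9.375, 18.75, 37.5 or 75 nM for about 16 h. Factor 11 mRNA quantified by real-time RT-PCR (primer probe set RTS 2966) and normalized to total RNA (RIBOGREEN). Results expressed as percent inhibition versus untreated cells.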

[4] = system: human Factor 11 mRNA; experiment: Dose-dependent inhibition of human Factor 11 in HepG2 cells, electroporation 0.7-20 uM (Example 4)
Outline: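 HepG2 cells electroporated with antisense gapmers at 0.7, 2.2, 6.7 and 20 μM, treated ~16 h. Factor 11 mRNA quantified by qRT-PCR (primer probe set RTS 2966), normalised to RIBOGREEN total RNA; expressed as percent inhibition versus untreated control cells.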

[5] = system: human Factor 11 mRNA; experiment: Antisense inhibition of human Factor 11 in HepG2 cells, electroporation, 8,000 nM (Example 30); details: electroporation, 8,000 nM antisense oligonucleotide
Method: These microwalk gapmers were tested in vitro. Cultured HepG2 cells at a density of 20,000 cells per well were transfected using electroporation with 8,000 nM antisense oligonucleotide. After a treatment period of approximately 24 hours, RNA was isolated from the cells and Factor 11 mRNA levels were measured by quantitative real-time PCR. Factor 11 mRNA levels were adjusted according to total RNA content, as measured by RIBOGREEN. Results are presented as percent inhibition of Factor 11, relative to untreated control cells.
The chimeric antisense oligonucleotides in Table 44 were designed as 5-10-5 MOE, 5-8-5 and 6-8-6 MOE gapmers. The first two listed gapmers in Table 44 are the original gapmers (ISIS 416850 and ISIS 416858) from which ISIS 445493-445543 were designed via microwalk, and are designated by an asterisk. The 5-10-5 gapmers are 20 nucleotides in length, wherein the central gap segment is comprised of ten 2′-deoxynucleotides and is flanked on both sides (in the 5′ and 3′ directions) by wings comprising five nucleotides each. The 5-8-5 gapmers are 18 nucleotides in length, wherein the central gap segment is comprised of eight 2′-deoxynucleotides and is flanked on both sides (in the 5′ and 3′ directions) by wings comprising five nucleotides each. The 6-8-6 gapmers are 20 nucleotides in length, wherein the central gap segment is comprised of eight 2′-deoxynucleotides and is flanked on both sides (in the 5′ and 3′ directions) by wings comprising six nucleotides each. For each of the motifs (5-10-5, 5-8-5 and 6-8-6), each nucleotide in the 5′ wing segment and each nucleotide in the 3′ wing segment has a 2′-MOE modification. The internucleoside linkages throughout each gapmer are phosphorothioate (P=S) linkages. All cytidine residues throughout each gapmer are 5-methylcytidines. “Human Target start site” indicates the 5′-most nucleotide to which the gapmer is targeted in the human sequence. “Human Target stop site” indicates the 3′-most nucleotide to which the gapmer is targeted in the human sequence. Each gapmer listed in Table 44 is targeted to SEQ ID NO: 1 (GENBANK Accession No. NM_000128.3). Each gapmer is Table 44 is also fully cross-reactive with the rhesus monkey Factor 11 gene sequence, designated herein as SEQ ID NO: 274 (exons 1-15 GENBANK Accession No. NW_001118167.1). ‘Rhesus monkey start site’ indicates the 5′-most nucleotide to which the gapmer is targeted in the rhesus monkey sequence. ‘Rhesus monkey stop site’ indicates the 3′-most nucleotide to which the gapmer is targeted to the rhesus monkey sequence.

[6] = gapmers targeted to SEQ ID NO: 1
[7] = gapmers targeted to SEQ ID NO: 2

| Substance | % inhibition [1, 7] [%] | Percent inhibition of human Factor 11 mRNA levels [5] [%] | further results |
| --- | --- | --- | --- |
| 412204 (antisense eT*eT*e[5mC]*eA*eT*dG*dT*d[5mC]*dT*dA*dG*dG*dT*d[5mC]*d[5mC]*eA*e[5mC]*eA*eT*eA) [compound 412204] | – | – | % inhibition [1, 6]: 74%; % inhibition ([2]; HepG2, lipofectin, ~24 h, gapmers targeted to nucleobases 656 to 704 of SEQ ID NO: 1): 76% |
| 412215 (antisense eA*eT*eT*e[5mC]*eT*dT*dT*dG*dG*dG*d[5mC]*d[5mC]*dA*dT*dT*e[5mC]*e[5mC]*eT*eG*eG) [compound 412215] | – | – | % inhibition [1, 6]: 81%; % inhibition ([2]; HepG2 cells, lipofectin, gapmers targeted to nucleobases 1062 to 1091 of SEQ ID NO: 1): 82% |
| 413474 (antisense eA*eG*e[5mC]*eA*eA*d[5mC]*d[5mC]*dG*dG*dG*dA*dT*dG*dA*dT*eG*eA*eG*eT*eG) [compound 413474] | – | – | % inhibition [1, 6]: 84%; % inhibition ([2]; HepG2 cells, lipofectin, gapmers targeted to nucleobases 1018 to 1042 of SEQ ID NO: 1): 93%; IC50 [3]: 0.028 µM; percent inhibition of Factor 11 at 9.375 nM ([3]; 9.375 nM, relative to untreated control cells): 29%; percent inhibition of Factor 11 at 18.75 nM ([3]; 18.75 nM, relative to untreated control cells): 44%; percent inhibition of Factor 11 at 37.5 nM ([3]; 37.5 nM, relative to untreated control cells): 57%; percent inhibition of Factor 11 at 75 nM ([3]; 75 nM, relative to untreated control cells): 67%; IC50 [4]: 6.9 µM; percent inhibition of Factor 11 at 0.7 μM ([4]; 0.7 μM, relative to untreated control cells): 0%; percent inhibition of Factor 11 at 2.2 μM ([4]; 2.2 μM, relative to untreated control cells): 5%; percent inhibition of Factor 11 at 6.7 μM ([4]; 6.7 μM, relative to untreated control cells): 52%; percent inhibition of Factor 11 at 20 μM ([4]; 20 μM, relative to untreated control cells): 81% |
| 413522 (antisense eT*e[5mC]*eA*eA*eG*dA*dG*dT*d[5mC]*dT*dT*d[5mC]*dA*dT*dG*e[5mC]*eT*eA*e[5mC]*e[5mC]) [compound 413522] | 42 | – | – |
| 413523 (antisense eT*e[5mC]*eA*eG*eT*dT*dT*dA*d[5mC]*d[5mC]*dT*dG*dG*dG*dA*eT*eG*e[5mC]*eT*eG) [compound 413523] | 61 | – | – |
| 413524 (antisense eG*eA*e[5mC]*eA*eT*dT*dA*dT*dA*d[5mC]*dT*d[5mC]*dA*d[5mC]*d[5mC]*eA*eT*eT*eA*eT) [compound 413524] | 7 | – | – |
| 413525 (antisense eG*eT*eA*eT*eA*dA*dA*dT*dG*dT*dG*dT*d[5mC]*dA*dA*eA*eT*eT*eA*eA) [compound 413525] | 43 | – | – |
| 413526 (antisense eG*eT*eA*eA*eA*dG*dT*dT*dT*dT*dA*d[5mC]*d[5mC]*dT*dT*eA*eA*e[5mC]*e[5mC]*eT) [compound 413526] | 47 | – | – |
| 413527 (antisense e[5mC]*e[5mC]*eA*eT*eA*dA*dT*dG*dA*dA*dG*dA*dA*dG*dG*eA*eA*eG*eG*eG) [compound 413527] | 52 | – | – |
| 413528 (antisense eT*eT*eA*eA*eG*dT*dT*dA*d[5mC]*dA*dT*dT*dG*dT*dA*eG*eA*e[5mC]*e[5mC]*eA) [compound 413528] | 48 | – | – |
| 413529 (antisense eT*eG*eT*eG*eT*dG*dG*dG*dT*d[5mC]*d[5mC]*dT*dG*dA*dA*eA*eT*eT*e[5mC]*eT) [compound 413529] | 52 | – | – |
| 413530 (antisense eA*eT*e[5mC]*eT*eT*dG*dT*dA*dA*dT*dT*dA*d[5mC]*dA*d[5mC]*eA*e[5mC]*e[5mC]*e[5mC]*e[5mC]) [compound 413530] | 27 | – | – |
| 413531 (antisense eG*eT*eA*e[5mC]*eA*d[5mC]*dT*d[5mC]*dT*dG*d[5mC]*dA*dA*d[5mC]*dA*eG*eA*eA*eG*e[5mC]) [compound 413531] | 47 | – | – |
| 413532 (antisense eA*eG*eG*eG*eA*dA*dT*dA*dA*d[5mC]*dA*dT*dG*dA*dA*eG*eG*e[5mC]*e[5mC]*e[5mC]) [compound 413532] | 32 | – | – |
| 413533 (antisense eA*eT*e[5mC]*e[5mC]*eA*dG*dT*dT*d[5mC]*dA*d[5mC]*d[5mC]*dA*dT*dT*eG*eG*eA*eG*eA) [compound 413533] | 48 | – | – |
| 413534 (antisense eT*eT*eT*eT*e[5mC]*d[5mC]*dA*dG*dA*dA*dG*dA*dG*dA*d[5mC]*eT*e[5mC]*eT*eT*e[5mC]) [compound 413534] | 31 | – | – |
| 413535 (antisense eG*eT*e[5mC]*eA*e[5mC]*dA*dT*dT*dT*dA*dA*dA*dA*dT*dT*eT*e[5mC]*e[5mC]*eA*eA) [compound 413535] | 41 | – | – |
| 413536 (antisense eT*eT*eA*eA*eT*dA*dT*dA*d[5mC]*dT*dG*d[5mC]*dA*dG*dA*eG*eA*eA*e[5mC]*e[5mC]) [compound 413536] | 37 | – | – |
| 413537 (antisense eA*eG*eA*eA*eA*dT*dA*dT*d[5mC]*d[5mC]*d[5mC]*d[5mC]*dA*dG*dA*e[5mC]*eA*eG*eA*eG) [compound 413537] | 16 | – | – |
| 445493 (antisense eA*e[5mC]*eA*eG*eT*eT*dT*d[5mC]*dT*dG*dG*d[5mC]*dA*dG*eG*e[5mC]*e[5mC]*eT*e[5mC]*eG) [compound 445493] | – | 69 | – |
| 445494 (antisense e[5mC]*eA*e[5mC]*eA*eG*eT*dT*dT*d[5mC]*dT*dG*dG*d[5mC]*dA*eG*eG*e[5mC]*e[5mC]*eT*e[5mC]) [compound 445494] | – | 85 | – |
| 445495 (antisense eG*e[5mC]*eA*e[5mC]*eA*eG*dT*dT*dT*d[5mC]*dT*dG*dG*d[5mC]*eA*eG*eG*e[5mC]*e[5mC]*eT) [compound 445495] | – | 89 | – |
| 445496 (antisense eT*eG*e[5mC]*eA*e[5mC]*eA*dG*dT*dT*dT*d[5mC]*dT*dG*dG*e[5mC]*eA*eG*eG*e[5mC]*e[5mC]) [compound 445496] | – | 87 | – |
| 445497 (antisense eG*eT*eG*e[5mC]*eA*e[5mC]*dA*dG*dT*dT*dT*d[5mC]*dT*dG*eG*e[5mC]*eA*eG*eG*e[5mC]) [compound 445497] | – | 81 | – |
| 445499 (antisense eT*eG*eG*eT*eG*e[5mC]*dA*d[5mC]*dA*dG*dT*dT*dT*d[5mC]*eT*eG*eG*e[5mC]*eA*eG) [compound 445499] | – | 75 | – |
| 445500 (antisense eT*eT*eG*eG*eT*eG*d[5mC]*dA*d[5mC]*dA*dG*dT*dT*dT*e[5mC]*eT*eG*eG*e[5mC]*eA) [compound 445500] | – | 81 | – |
| 445501 (antisense eA*eT*eT*eG*eG*eT*dG*d[5mC]*dA*d[5mC]*dA*dG*dT*dT*eT*e[5mC]*eT*eG*eG*e[5mC]) [compound 445501] | – | 83 | – |
| 445502 (antisense e[5mC]*eA*eT*eT*eG*eG*dT*dG*d[5mC]*dA*d[5mC]*dA*dG*dT*eT*eT*e[5mC]*eT*eG*eG) [compound 445502] | – | 83 | – |
| 445506 (antisense eA*e[5mC]*eG*eG*e[5mC]*eA*dT*dT*dG*dG*dT*dG*d[5mC]*dA*e[5mC]*eA*eG*eT*eT*eT) [compound 445506] | – | 86 | – |
| 445507 (antisense eG*eA*e[5mC]*eG*eG*e[5mC]*dA*dT*dT*dG*dG*dT*dG*d[5mC]*eA*e[5mC]*eA*eG*eT*eT) [compound 445507] | – | 85 | – |
